Results published in US11136296B2, “Substituted N-arylethyl-2-arylquinoline-4-carboxamides and use thereof” (Bayer Aktiengesellschaft, priority 2017, dated 2021).

Target: FP receptor (Homo sapiens (Human), UniProt P43088)
Assay: In vitro test of inhibition of human FP receptor activity (PGF2α-induced calcium flux in FP-expressing CHEM1 cells)
Format: cell-based
Settings: PGF2α-induced (2 nM) calcium flux in FP-expressing CHEM1 cells; some as mean values from multiple determinations
Description: Table 1 below lists the IC50 values from this assay for individual working examples of the invention (some as mean values from multiple independent individual determinations): […]

Chain of FP receptor (P43088 whole entry): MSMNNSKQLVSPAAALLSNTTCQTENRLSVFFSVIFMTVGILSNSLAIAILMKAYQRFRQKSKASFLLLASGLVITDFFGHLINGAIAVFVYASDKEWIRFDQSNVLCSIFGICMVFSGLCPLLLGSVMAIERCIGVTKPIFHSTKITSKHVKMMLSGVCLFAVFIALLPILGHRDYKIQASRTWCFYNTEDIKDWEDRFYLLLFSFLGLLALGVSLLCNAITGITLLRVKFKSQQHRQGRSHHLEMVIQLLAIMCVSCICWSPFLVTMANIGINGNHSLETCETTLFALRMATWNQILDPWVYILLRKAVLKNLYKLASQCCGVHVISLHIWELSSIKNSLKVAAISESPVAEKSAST

Row | IC50 | SMILES
1 | 1.8 nM | Cc1c(-c2ccccc2)nc2ccc(Br)cc2c1C(=O)NCC(CCC(=O)O)c1ccccc1OC(F)(F)F (racemic) [Example 209, (+/−)-5-{[(6-Bromo-3-methyl-2-phenylquinolin-4-yl)carbonyl]amino}-4-[2-(trifluoromethoxy)phenyl]pentanoic Acid]
2 | 6.6 nM | O=C(O)CCC(CNC(=O)c1c(Cl)c(-c2ccccc2)nc2ccc(Br)cc12)c1ccccc1Cl (racemic) [Example 212, (+/−)-5-{[(6-Bromo-3-chloro-2-phenylquinolin-4-yl)carbonyl]amino}-4-(2-chlorophenyl)pentanoic Acid]
3 | 5.4 nM | O=C(O)CCC(CNC(=O)c1c(Cl)c(-c2ccccc2)nc2ccc(Br)cc12)c1ccccc1C(F)(F)F (racemic) [Example 215, (+/−)-5-{[(6-Bromo-3-chloro-2-phenylquinolin-4-yl)carbonyl]amino}-4-[2-(trifluoromethyl)phenyl]pentanoic Acid]
4 | 13 nM | C#Cc1ccc2nc(-c3ccccc3)c(C)c(C(=O)NCC(CCC(=O)O)c3ccccc3Cl)c2c1 (racemic) [Example 218, (+/−)-4-(2-Chlorophenyl)-5-{[(6-ethynyl-3-methyl-2-phenylquinolin-4-yl)carbonyl]amino}pentanoic Acid]
5 | 2.4 nM | O=C(O)CCC(CNC(=O)c1c(Cl)c(-c2ccccc2)nc2ccc(Br)cc12)c1c(F)ccc(F)c1Cl (racemic) [Example 221, (+/−)-5-{[(6-Bromo-3-chloro-2-phenylquinolin-4-yl)carbonyl]amino}-4-(2-chloro-3,6-difluorophenyl)pentanoic Acid]
6 | 100 nM | Cc1c(-c2ccccc2)nc2ccc(Br)cc2c1C(=O)NCC(CCC(=O)O)c1ccccn1 (racemic) [Example 224, (+/−)-5-{[(6-Bromo-3-methyl-2-phenylquinolin-4-yl)carbonyl]amino}-4-(pyridin-2-yl)pentanoic Acid]
7 | 4.7 nM | Cc1c(-c2ccccc2)nc2ccc(Br)cc2c1C(=O)NCC(CCC(=O)O)c1c(F)cccc1C(F)(F)F (racemic) [Example 225, (+/−)-5-{[(6-Bromo-3-methyl-2-phenylquinolin-4-yl)carbonyl]amino}-4-[2-fluoro-6-(trifluoromethyl)phenyl]pentanoic Acid]
8 | 4.2 nM | Cc1c(-c2ccccc2)nc2ccc(Br)cc2c1C(=O)NCC(CCC(=O)O)c1c(F)c(F)cc(F)c1F (racemic) [Example 228, (+/−)-5-{[(6-Bromo-3-methyl-2-phenylquinolin-4-yl)carbonyl]amino}-4-(2,3,5,6-tetrafluorophenyl)pentanoic Acid]
9 | 22 nM | Cc1c(-c2ccccc2)nc2ccc(Br)cc2c1C(=O)NCC(CCC(=O)O)c1cc(F)cc(F)c1F (racemic) [Example 231, (+/−)-5-{[(6-Bromo-3-methyl-2-phenylquinolin-4-yl)carbonyl]amino}-4-(2,3,5-trifluorophenyl)pentanoic Acid]
10 | 7.2 nM | Cc1c(-c2ccccc2)nc2ccc(Br)cc2c1C(=O)NCC(CCC(=O)O)c1c(Cl)ccc(Cl)c1Cl (racemic) [Example 234, (+/−)-5-{[(6-Bromo-3-methyl-2-phenylquinolin-4-yl)carbonyl]amino}-4-(2,3,6-trichlorophenyl)pentanoic Acid]
11 | 24 nM | Cc1c(-c2ccccc2)nc2ccc(Br)cc2c1C(=O)NCC(C)(CCCC(=O)O)c1ccccc1Cl (racemic) [Example 240, (+/−)-6-{[(6-Bromo-3-methyl-2-phenylquinolin-4-yl)carbonyl]amino}-5-(2-chlorophenyl)-5-methylhexanoic Acid]
12 | 31 nM | Cc1c(-c2ccccc2)nc2ccc(Br)cc2c1C(=O)NCC(C)(CCCC(=O)O)c1ccccc1 (racemic) [Example 243, (+/−)-6-{[(6-Bromo-3-methyl-2-phenylquinolin-4-yl)carbonyl]amino}-5-methyl-5-phenylhexanoic Acid]
13 | 470 nM | Cc1c(-c2ccccc2)nc2ccc(Br)cc2c1C(=O)NCC(C(=O)O)c1ccc(F)cc1 (single isomer, unassigned) [Example 11, 3-{[(6-Bromo-3-methyl-2-phenylquinolin-4-yl)carbonyl]amino}-2-(4-fluorophenyl)propanoic Acid]
14 | 180 nM | Cc1c(-c2ccccc2)nc2ccc(Br)cc2c1C(=O)NCC(C(=O)O)c1ccc(F)cc1 (single isomer, unassigned) [Example 12, 3-{[(6-Bromo-3-methyl-2-phenylquinolin-4-yl)carbonyl]amino}-2-(4-fluorophenyl)propanoic Acid]
15 | 580 nM | Cc1c(-c2ccccc2)nc2ccc(Br)cc2c1C(=O)NCC(C(=O)O)c1ccc2c(c1)OCO2 (single isomer, unassigned) [Example 24, 2-(1,3-Benzodioxol-5-yl)-3-{[(6-bromo-3-methyl-2-phenylquinolin-4-yl)carbonyl]amino}propanoic Acid]
16 | > 1000 nM | Cc1c(-c2ccccc2)nc2ccc(Br)cc2c1C(=O)NCC(C(=O)O)c1ccc2c(c1)OCO2 (single isomer, unassigned) [Example 25, 2-(1,3-Benzodioxol-5-yl)-3-{[(6-bromo-3-methyl-2-phenylquinolin-4-yl)carbonyl]amino}propanoic Acid]

Row | IC50 | SMILES
17 | 53 nM | Cc1c(-c2ccccc2)nc2ccc(Br)cc2c1C(=O)NCC(C)(C(=O)O)c1ncccc1Cl (single isomer, unassigned) [Example 27, 3-{[(6-Bromo-3-methyl-2-phenylquinolin-4-yl)carbonyl]amino}-2-(3-chloropyridin-2-yl)-2-methylpropanoic Acid]
18 | 100 nM | Cc1c(-c2ccccc2)nc2ccc(Br)cc2c1C(=O)NCC(C)(C(=O)O)c1ncccc1Cl (single isomer, unassigned) [Example 28, 3-{[(6-Bromo-3-methyl-2-phenylquinolin-4-yl)carbonyl]amino}-2-(3-chloropyridin-2-yl)-2-methylpropanoic Acid]
19 | 86 nM | Cc1c(-c2ccccc2)nc2ccc(Br)cc2c1C(=O)NCC(CC(=O)O)c1cccc(Cl)c1 (single isomer, unassigned) [Example 73, 4-{[(6-Bromo-3-methyl-2-phenylquinolin-4-yl)carbonyl]amino}-3-(3-chlorophenyl)butanoic Acid]
20 | 79 nM | Cc1c(-c2ccccc2)nc2ccc(Br)cc2c1C(=O)NCC(CC(=O)O)c1cccc(Cl)c1 (single isomer, unassigned) [Example 74, 4-{[(6-Bromo-3-methyl-2-phenylquinolin-4-yl)carbonyl]amino}-3-(3-chlorophenyl)butanoic Acid]
21 | 140 nM | Cc1c(-c2ccccc2)nc2ccc(Br)cc2c1C(=O)NCC(CC(=O)O)c1c(Cl)cccc1Cl (single isomer, unassigned) [Example 79, 4-{[(6-Bromo-3-methyl-2-phenylquinolin-4-yl)carbonyl]amino}-3-(2,6-dichlorophenyl)butanoic Acid]
22 | 51 nM | Cc1c(-c2ccccc2)nc2ccc(Br)cc2c1C(=O)NCC(CC(=O)O)c1c(Cl)cccc1Cl (single isomer, unassigned) [Example 80, 4-{[(6-Bromo-3-methyl-2-phenylquinolin-4-yl)carbonyl]amino}-3-(2,6-dichlorophenyl)butanoic Acid]
23 | 96 nM | Cc1cccc(C(CNC(=O)c2c(C)c(-c3ccccc3)nc3ccc(Br)cc23)CC(=O)O)c1 (single isomer, unassigned) [Example 94, 4-{[(6-Bromo-3-methyl-2-phenylquinolin-4-yl)carbonyl]amino}-3-(3-methylphenyl)butanoic Acid]
24 | 84 nM | Cc1cccc(C(CNC(=O)c2c(C)c(-c3ccccc3)nc3ccc(Br)cc23)CC(=O)O)c1 (single isomer, unassigned) [Example 95, 4-{[(6-Bromo-3-methyl-2-phenylquinolin-4-yl)carbonyl]amino}-3-(3-methylphenyl)butanoic Acid]
25 | 92 nM | Cc1c(-c2ccccc2)nc2ccc(Br)cc2c1C(=O)NCC(c1ccccc1Cl)C(C)(C)C(=O)O (single isomer, unassigned) [Example 112, 4-{[(6-Bromo-3-methyl-2-phenylquinolin-4-yl)carbonyl]amino}-3-(2-chlorophenyl)-2,2-dimethylbutanoic Acid]
26 | 62 nM | Cc1c(-c2ccccc2)nc2ccc(Br)cc2c1C(=O)NCC(c1ccccc1Cl)C(C)(C)C(=O)O (single isomer, unassigned) [Example 113, 4-{[(6-Bromo-3-methyl-2-phenylquinolin-4-yl)carbonyl]amino}-3-(2-chlorophenyl)-2,2-dimethylbutanoic Acid]
27 | 400 nM | Cc1c(-c2ccccc2)nc2ccc(Br)cc2c1C(=O)NCC(c1ccccc1Cl)S(=O)(=O)CC(=O)O (single isomer, unassigned) [Example 198, (+/−)-{[2-{[(6-Bromo-3-methyl-2-phenylquinolin-4-yl)carbonyl]amino}-1-(2-chlorophenyl)ethyl]sulfonyl}acetic Acid]
28 | 25 nM | Cc1c(-c2ccccc2)nc2ccc(Br)cc2c1C(=O)NCC(c1ccccc1Cl)S(=O)(=O)CC(=O)O (single isomer, unassigned) [Example 199, {[2-{[(6-Bromo-3-methyl-2-phenylquinolin-4-yl)carbonyl]amino}-1-(2-chlorophenyl)ethyl]sulfonyl}acetic Acid]
29 | 8.8 nM | Cc1c(-c2ccccc2)nc2ccc(Br)cc2c1C(=O)NCC(CCC(=O)O)c1cc(F)cc(F)c1F (single isomer, unassigned) [Example 232, 5-{[(6-Bromo-3-methyl-2-phenylquinolin-4-yl)carbonyl]amino}-4-(2,3,5-trifluorophenyl)pentanoic Acid]
30 | 25 nM | Cc1c(-c2ccccc2)nc2ccc(Br)cc2c1C(=O)NCC(CCC(=O)O)c1cc(F)cc(F)c1F (single isomer, unassigned) [Example 233, 5-{[(6-Bromo-3-methyl-2-phenylquinolin-4-yl)carbonyl]amino}-4-(2,3,5-trifluorophenyl)pentanoic Acid]
31 | 270 nM | Cc1c(-c2ccccc2)nc2ccc(Br)cc2c1C(=O)NCC(C(=O)O)c1ccccc1 (single isomer, unassigned; (+)) [Example 3, (+)-3-{[(6-Bromo-3-methyl-2-phenylquinolin-4-yl)carbonyl]amino}-2-phenylpropanoic Acid]
